In patent US20240217966A1, “PHARMACEUTICAL COMPOSITION CONTAINING GLP-1 RECEPTOR AGONIST HAVING FUSED RING” (Shionogi & Co., Ltd., priority 2021, published 2024) one finds Emax and EC50 data, which are given here for 44 molecules.

The structures appear in SMILES notation.

The target of the test is T1, Human GLP-1 receptor (Homo sapiens, UniProt P43220).
T1 construct: expressed in transfected cells
Description: Measurement of GLP-1 receptor agonist activity (cAMP assay). In kind it is cell-based. The following applies: for Emax: CHO-K1, hGLP-1R/CHO-K1 cells, cAMP, 100% = human GLP-1 (7-36) at 2 nM, 0% = DMSO only, read-out: Emax(%); for EC50: hGLP-1R/CHO-K1 cells, cAMP increase, 37° C. 1 hour. In outline:
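hGLP-1R/CHO-K1 cells in HBSS with 0.1% BSA, 20 mM HEPES, 0.1 mM IBMX and 0.2 mM RO20-1724 exposed to compound plus forskolin (400 μM stock) for 1 h at 37 °C. Intracellular cAMP read by HTRF (cAMP-d2/anti-cAMP cryptate, 1 h at room temperature).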

T1 sequence (P43220 24-463): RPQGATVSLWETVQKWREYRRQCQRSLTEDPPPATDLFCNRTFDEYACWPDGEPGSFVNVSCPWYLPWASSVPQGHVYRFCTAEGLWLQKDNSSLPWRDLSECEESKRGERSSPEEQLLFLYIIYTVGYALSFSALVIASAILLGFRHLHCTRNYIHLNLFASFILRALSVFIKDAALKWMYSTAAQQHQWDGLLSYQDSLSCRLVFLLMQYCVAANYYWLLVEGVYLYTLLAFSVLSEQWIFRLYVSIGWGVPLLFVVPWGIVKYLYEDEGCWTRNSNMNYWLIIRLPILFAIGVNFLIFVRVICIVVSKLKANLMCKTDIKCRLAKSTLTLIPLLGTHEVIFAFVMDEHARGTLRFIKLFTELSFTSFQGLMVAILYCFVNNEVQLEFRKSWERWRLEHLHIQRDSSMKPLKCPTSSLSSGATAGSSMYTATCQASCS

Take `O=C(O)c1ccc2nc(CN3CCc4cc(C(F)(F)F)c(OCc5ccccc5)cc4C3)n(C[C@@H]3CCO3)c2c1` [Compound I-156]: the Emax amounted to 89% and a half-maximal response (EC50) required 36.8 nM.
For the molecule `N#Cc1cc(Cl)ccc1COc1cc2c(cc1C(F)(F)F)CCN(Cc1nc3ccc(C(=O)O)cc3n1C[C@@H]1CCO1)C2` [Compound I-157], the Emax amounted to 109% and the response was half-maximal at 4.29 nM (EC50).
As for `O=C(O)c1ccc2nc(CN3CCc4cc(C(F)(F)F)c(OCc5c(F)cccc5Cl)cc4C3)n(C[C@@H]3CCO3)c2c1` [Compound I-158], the Emax is 94% and the response was half-maximal at 16.3 nM (EC50).
For `Cc1cc(F)cc(C)c1COc1cc2c(cc1C(F)(F)F)CCN(Cc1nc3ccc(C(=O)O)cc3n1C[C@@H]1CCO1)C2` [Compound I-159] the same measures were 92.3% and 13.3 nM.
On the same counts, the results for `C[C@H]1c2cc(OCc3ccc(Cl)cc3)c(C(F)(F)F)cc2CCN1Cc1nc2ccc(C(=O)O)cc2n1C[C@@H]1CCO1` [Compound I-161] are 110% and 1.28 nM.
For `Cc1ccc(COc2cc3c(cc2C(F)(F)F)CCN(Cc2nc4ccc(C(=O)O)cc4n2C[C@@H]2CCO2)[C@H]3C)cc1` [Compound I-162] the same measures were 106% and 1.37 nM.
Regarding `C[C@H]1c2cc(OCc3ccc(C4CC4)cc3)c(C(F)(F)F)cc2CCN1Cc1nc2ccc(C(=O)O)cc2n1C[C@@H]1CCO1` [Compound I-163], the Emax amounted to 131% and the EC50 amounted to 10.6 nM.
Turning to `COc1cc(Cl)ccc1COc1cc2c(cc1C(F)(F)F)CCN(Cc1nc3ccc(C(=O)O)cc3n1C[C@@H]1CCO1)[C@H]2C` [Compound I-164], the Emax amounted to 104% and the midpoint of the response, the EC50, lay at 0.302 nM.
On to `C[C@H]1c2cc(OCc3ccccc3Cl)c(C(F)(F)F)cc2CCN1Cc1nc2ccc(C(=O)O)cc2n1C[C@@H]1CCO1` [Compound I-165], for which the maximal effect (Emax) worked out at 103% and the EC50 was 2.74 nM.
For `C[C@H]1c2cc(OCc3ccc(F)cc3F)c(C(F)(F)F)cc2CCN1Cc1nc2ccc(C(=O)O)cc2n1C[C@@H]1CCO1` [Compound I-166] the same measures were 111% and 1.23 nM.
On to `C[C@H]1c2cc(OCc3ccc(Cl)cc3Cl)c(C(F)(F)F)cc2CCN1Cc1nc2ccc(C(=O)O)cc2n1C[C@@H]1CCO1` [Compound I-167], for which the Emax worked out at 102% and a half-maximal response (EC50) required 0.707 nM.
For `C[C@H]1c2cc(OCc3ccc(OC(F)F)cc3F)c(C(F)(F)F)cc2CCN1Cc1nc2ccc(C(=O)O)cc2n1C[C@@H]1CCO1` [Compound I-168] the same measures were 104% and 2.24 nM.
With `C[C@H]1c2cc(OCc3cc(F)c(Cl)cc3F)c(C(F)(F)F)cc2CCN1Cc1nc2ccc(C(=O)O)cc2n1C[C@@H]1CCO1` [Compound I-169], the Emax is 101% and the response was half-maximal at 1.21 nM (EC50).
On the same counts, the results for `C[C@H]1c2cc(OCc3ccc(C#N)cc3F)c(C(F)(F)F)cc2CCN1Cc1nc2ccc(C(=O)O)cc2n1C[C@@H]1CCO1` [Compound I-170] are 120% and 1.24 nM.
As to `COc1ccc(COc2cc3c(cc2C(F)(F)F)CCN(Cc2nc4ccc(C(=O)O)cc4n2C[C@@H]2CCO2)[C@H]3C)cc1` [Compound I-171], the Emax was determined as 98.7% and the EC50 stood at 2.37 nM.
For `C[C@H]1c2cc(OCc3ccc(Cl)cn3)c(C(F)(F)F)cc2CCN1Cc1nc2ccc(C(=O)O)cc2n1C[C@@H]1CCO1` [Compound I-172] the same measures were 113% and 0.946 nM.
For `Cc1csc(COc2cc3c(cc2C(F)(F)F)CCN(Cc2nc4ccc(C(=O)O)cc4n2C[C@@H]2CCO2)[C@H]3C)n1` [Compound I-173] the same measures were 102% and 2.3 nM.
As to `C[C@H]1c2cc(OCc3ccc(Cl)cc3F)c(Cl)cc2CCN1Cc1nc2ccc(C(=O)O)cc2n1C[C@@H]1CCO1` [Compound I-174], the Emax was 109% and the EC50 came to 1.58 nM.
Turning to `COc1ccc(COc2cc3c(cc2C(F)(F)F)CCN(Cc2nc4ccc(C(=O)O)nc4n2C[C@@H]2CCO2)[C@H]3C)cc1` [Compound I-175], the Emax worked out at 101% and a half-maximal effect (EC50) was put at 3.58 nM.
For `C[C@H]1c2cc(OCc3ccc(Cl)cn3)c(C(F)(F)F)cc2CCN1Cc1nc2ccc(C(=O)O)nc2n1C[C@@H]1CCO1` [Compound I-176], the Emax was determined as 98.3% and the EC50 amounted to 2.12 nM.
In the case of `Cc1csc(COc2cc3c(cc2C(F)(F)F)CCN(Cc2nc4ccc(C(=O)O)nc4n2C[C@@H]2CCO2)[C@H]3C)n1` [Compound I-177], the Emax was 107% and the EC50 came out at 3.09 nM.
With `C[C@H]1c2cc(OCc3ccc(Cl)cc3)c(C(F)(F)F)cc2CCN1Cc1nc2ccc(C(=O)O)nc2n1C[C@@H]1CCO1` [Compound I-178], the Emax came to 111% and the EC50 stood at 1.97 nM.
On the same counts, the results for `Cc1ccc(COc2cc3c(cc2C(F)(F)F)CCN(Cc2nc4ccc(C(=O)O)nc4n2C[C@@H]2CCO2)[C@H]3C)cc1` [Compound I-179] are 99% and 1.88 nM.
Take `C[C@H]1c2cc(OCc3ccc(C4CC4)cc3)c(C(F)(F)F)cc2CCN1Cc1nc2ccc(C(=O)O)nc2n1C[C@@H]1CCO1` [Compound I-180]: the Emax was determined as 97.3% and the EC50 is 8.94 nM.
Consider `COc1cc(Cl)ccc1COc1cc2c(cc1C(F)(F)F)CCN(Cc1nc3ccc(C(=O)O)nc3n1C[C@@H]1CCO1)[C@H]2C` [Compound I-181], for which the Emax amounted to 116% and the midpoint of the response, the EC50, lay at 0.374 nM.
Regarding `C[C@H]1c2cc(OCc3ccccc3Cl)c(C(F)(F)F)cc2CCN1Cc1nc2ccc(C(=O)O)nc2n1C[C@@H]1CCO1` [Compound I-182], the maximal response (Emax) was determined as 126% and the EC50 was 3.31 nM.
For `C[C@H]1c2cc(OCc3ccc(F)cc3F)c(C(F)(F)F)cc2CCN1Cc1nc2ccc(C(=O)O)nc2n1C[C@@H]1CCO1` [Compound I-183] the same measures were 98% and 2.54 nM.
On the same counts, the results for `C[C@H]1c2cc(OCc3ccc(OC(F)F)cc3F)c(C(F)(F)F)cc2CCN1Cc1nc2ccc(C(=O)O)nc2n1C[C@@H]1CCO1` [Compound I-184] are 98% and 4.75 nM.
In the case of `C[C@H]1c2cc(OCc3cc(F)c(Cl)cc3F)c(C(F)(F)F)cc2CCN1Cc1nc2ccc(C(=O)O)nc2n1C[C@@H]1CCO1` [Compound I-185], the Emax came to 106% and the EC50 came out at 2.2 nM.
For `C[C@H]1c2cc(OCc3ccc(C#N)cc3F)c(C(F)(F)F)cc2CCN1Cc1nc2ccc(C(=O)O)nc2n1C[C@@H]1CCO1` [Compound I-186] the same measures were 111% and 3.28 nM.
As for `C[C@H]1c2cc(OCc3ccc(F)cc3)c(C(F)(F)F)cc2CCN1Cc1nc2ccc(C(=O)O)nc2n1C[C@@H]1CCO1` [Compound I-187], the Emax was 105% and the EC50 was determined as 4.2 nM.
On to `C[C@H]1c2cc(OCc3c(F)cc(F)cc3F)c(C(F)(F)F)cc2CCN1Cc1nc2ccc(C(=O)O)nc2n1C[C@@H]1CCO1` [Compound I-188], for which the Emax stood at 90.3% and the EC50 is 1.79 nM.
For `COc1cc(C(=O)O)cc2c1nc(CN1CCc3cc(C(F)(F)F)c(OCc4ccc(Cl)cc4F)cc3[C@@H]1C)n2C[C@@H]1CCO1` [Compound I-189] the same measures were 122% and 0.0651 nM.
On the same counts, the results for `COc1ccc(COc2cc3c(cc2C(F)(F)F)CCN(Cc2nc4ccc(C(=O)O)c(F)c4n2C[C@@H]2CCO2)[C@H]3C)cc1` [Compound I-190] are 109% and 1.08 nM.
Take `C[C@H]1c2cc(OCc3ccc(Cl)cn3)c(C(F)(F)F)cc2CCN1Cc1nc2ccc(C(=O)O)c(F)c2n1C[C@@H]1CCO1` [Compound I-191]: the Emax was found to be 130% and the EC50 was 0.644 nM.
For `Cc1csc(COc2cc3c(cc2C(F)(F)F)CCN(Cc2nc4ccc(C(=O)O)c(F)c4n2C[C@@H]2CCO2)[C@H]3C)n1` [Compound I-192] the same measures were 123% and 1.2 nM.
On the same counts, the results for `C[C@H]1c2cc(OCc3ccc(Cl)cc3)c(C(F)(F)F)cc2CCN1Cc1nc2ccc(C(=O)O)c(F)c2n1C[C@@H]1CCO1` [Compound I-193] are 115% and 0.73 nM.
`Cc1ccc(COc2cc3c(cc2C(F)(F)F)CCN(Cc2nc4ccc(C(=O)O)c(F)c4n2C[C@@H]2CCO2)[C@H]3C)cc1` [Compound I-194]: the maximum response (Emax) turned out to be 111% and the midpoint of the response, the EC50, lay at 0.741 nM.
On the same counts, the results for `C[C@H]1c2cc(OCc3ccc(C4CC4)cc3)c(C(F)(F)F)cc2CCN1Cc1nc2ccc(C(=O)O)c(F)c2n1C[C@@H]1CCO1` [Compound I-195] are 96.3% and 3.29 nM.
On the same counts, the results for `COc1cc(Cl)ccc1COc1cc2c(cc1C(F)(F)F)CCN(Cc1nc3ccc(C(=O)O)c(F)c3n1C[C@@H]1CCO1)[C@H]2C` [Compound I-196] are 106% and 0.136 nM.
With `C[C@H]1c2cc(OCc3ccccc3Cl)c(C(F)(F)F)cc2CCN1Cc1nc2ccc(C(=O)O)c(F)c2n1C[C@@H]1CCO1` [Compound I-197], the Emax came to 119% and the EC50 was 1.33 nM.
For `C[C@H]1c2cc(OCc3ccc(F)cc3F)c(C(F)(F)F)cc2CCN1Cc1nc2ccc(C(=O)O)c(F)c2n1C[C@@H]1CCO1` [Compound I-198], the Emax turned out to be 128% and the concentration for a half-maximal effect (EC50) is 1.17 nM.
With `C[C@H]1c2cc(OCc3ccc(OC(F)F)cc3F)c(C(F)(F)F)cc2CCN1Cc1nc2ccc(C(=O)O)c(F)c2n1C[C@@H]1CCO1` [Compound I-199], the Emax was 128% and the EC50 came to 0.86 nM.
`C[C@H]1c2cc(OCc3cc(F)c(Cl)cc3F)c(C(F)(F)F)cc2CCN1Cc1nc2ccc(C(=O)O)c(F)c2n1C[C@@H]1CCO1` [Compound I-200]: the Emax was determined as 102% and a half-maximal response (EC50) required 0.577 nM.
